Marks after values point to notes of the source that are not given here.

The test system of data set [1] is male C57BL/6NHsd mice. The conditions noted are these: mouse, in vivo.
Data set [2] deals with male C57BL/6NHsd mice. As to conditions: mouse, in vivo. This is another data set of the same source.
The target of data set [3] is T1, hMOR (Homo sapiens, UniProt P35372). The experiment in a line: biochemical. Type of data set: binding.
The target in data set [4] is T2, hKOR (Homo sapiens, UniProt P41145). The experiment in a line: biochemical. Type of data set: biochemical.
T2 sequence (P41145 whole entry): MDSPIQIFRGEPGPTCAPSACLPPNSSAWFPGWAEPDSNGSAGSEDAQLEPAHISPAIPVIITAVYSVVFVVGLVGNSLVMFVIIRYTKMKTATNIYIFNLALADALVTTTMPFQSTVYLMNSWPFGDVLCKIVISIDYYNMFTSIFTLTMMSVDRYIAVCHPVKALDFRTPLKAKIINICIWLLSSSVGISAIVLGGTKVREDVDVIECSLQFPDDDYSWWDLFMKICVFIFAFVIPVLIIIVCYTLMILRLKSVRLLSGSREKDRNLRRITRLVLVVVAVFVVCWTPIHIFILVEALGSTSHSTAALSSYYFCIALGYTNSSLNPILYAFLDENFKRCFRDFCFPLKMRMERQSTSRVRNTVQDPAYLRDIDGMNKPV
The target in data set [5] is T2, hKOR. The experiment in a line: biochemical. Type of data set: binding.
In data set [6] the target is T1, hMOR. The experiment in a line: GTPγS functional assay, MOR. As to conditions: from GTPγS EC50 values. The format is biochemical.
For data set [7], the target named is T3, hDOR (Homo sapiens, UniProt P41143). The experiment in a line: Competitive radioligand binding assay, DOR.
T3 sequence (P41143 whole entry): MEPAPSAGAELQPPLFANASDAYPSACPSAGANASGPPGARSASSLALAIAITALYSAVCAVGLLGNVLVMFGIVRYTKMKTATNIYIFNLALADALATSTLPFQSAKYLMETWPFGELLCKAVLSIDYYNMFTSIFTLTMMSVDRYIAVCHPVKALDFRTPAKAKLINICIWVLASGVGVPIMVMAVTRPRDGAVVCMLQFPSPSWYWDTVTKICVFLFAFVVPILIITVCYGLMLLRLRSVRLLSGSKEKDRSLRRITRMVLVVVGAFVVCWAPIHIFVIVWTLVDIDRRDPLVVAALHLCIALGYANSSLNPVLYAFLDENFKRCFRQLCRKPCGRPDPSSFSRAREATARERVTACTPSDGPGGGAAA
The test system of data set [8] is male C57BL/6NHsd mice. As to conditions: mouse, in vivo. This is another data set of the same source.
The target of data set [9] is T3, hDOR. The data set is described as follows: GTPγS functional assay, DOR. Type of data set: biochemical.
Data set [10] has as its target DOR. As to conditions: cited from earlier work.
The subject of data set [11] is KOR. The data set is described as follows: Literature binding affinity at KOR. The conditions noted are these: from literature Ki values.
The subject of data set [12] is MOR. The data set is described as follows: Literature binding affinity at MOR. As to conditions: from literature Ki values.
Data set [13] deals with KOR. The conditions noted are these: cited from earlier work.
For data set [14], the target named is MOR. The conditions noted are these: cited from earlier work.

T1 sequence (P35372 whole entry): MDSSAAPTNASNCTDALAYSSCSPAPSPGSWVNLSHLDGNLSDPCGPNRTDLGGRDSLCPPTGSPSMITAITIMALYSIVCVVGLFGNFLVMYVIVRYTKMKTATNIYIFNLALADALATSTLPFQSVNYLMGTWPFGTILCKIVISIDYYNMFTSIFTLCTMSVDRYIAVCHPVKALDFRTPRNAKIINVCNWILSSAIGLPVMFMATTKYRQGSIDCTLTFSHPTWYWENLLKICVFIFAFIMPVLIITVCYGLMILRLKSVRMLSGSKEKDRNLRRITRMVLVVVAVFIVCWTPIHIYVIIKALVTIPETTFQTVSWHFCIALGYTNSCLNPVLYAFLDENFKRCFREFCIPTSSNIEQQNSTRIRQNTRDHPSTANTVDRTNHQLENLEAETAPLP

The Kd is the concentration at which binding is half-saturated. For orientation: EC50 means the concentration needed to bring the measured effect to its halfway point. A low value points to an effect from little substance. For `COC(=O)[C@@H]1C[C@H](OC(=O)C2=Cc3ccccc3C2)C(=O)[C@H]2[C@@]1(C)CC[C@H]1C(=O)O[C@H](c3ccoc3)C[C@]21C` [Compound 2, Methyl-(2S,4aR,6aR,7R,9S,10aS,10bR)-9-((1H-indene-2-carbonyl)oxy)-2-(furan-3-yl)-6a,10b-dimethyl-4,10-dioxododecahydro-2H-benzo[f]isochromene-7-carboxylate], the “latency to hind paw lick or flutter compared to vehicle” value in data set [1] is “significant increase in the latency to paw response”. For the same compound, the “latency to tail withdrawal compared to vehicle” value in data set [2] is listed as “Neither salvinorin A, herkinorin, nor compounds 2 or 10 demonstrated significant antinociception”. Besides, the figures for the dissociation constant (Kd) in data set [3], in [5] and in [7] were 538 nM, 49.7 nM and 714 nM, respectively. In [4], the “Full or partial agonist (KOR)” value is 853 (456–1600)^[d]. Moreover, in data set [5], the “fold preference towards KOR (binding affinity, KOR vs MOR)” value came to 11 fold. In data set [6], the “fold higher potency at MOR (vs KOR)” value came out at 17 fold. Moreover, the “distance traveled in the maze compared to vehicle” value in data set [8] (male, C57BL/6NHsd) is listed as “neither salvinorin A, nor compound 2, altered the distance”. The “time spent in the open arms compared to vehicle” value in [8] was “significantly increased the amount of time spent on the open arms of the maze”. Also, a half-maximal response in data set [9] (EC50) required 2350 nM.

A word on the Ki: it is the dissociation constant of the complex between target and ligand, obtained from inhibition or displacement. On to `COC(=O)[C@@H]1C[C@H](OC(=O)c2ccccc2)C(=O)[C@H]2[C@@]1(C)CC[C@H]1C(=O)O[C@H](c3ccoc3)C[C@]21C` [Herkinorin], for which, in data set [1], the “latency to hind paw lick or flutter compared to vehicle” value is reported as “Neither salivinorin A, herkinorin, nor compound 10 were observed to significantly influence the latency to paw response”. For the same compound, the “latency to tail withdrawal compared to vehicle” value in [2] is “Neither salvinorin A, herkinorin, nor compounds 2 or 10 demonstrated significant antinociception”. Further, the dissociation constant Kd was 1170 ± 60 nM in data set [10] (read-out: KD [nM] (DOR), Literature values); 90 ± 2 nM in [13] (read-out: KD [nM] (KOR)); 12 ± 1 nM in [14] (read-out: KD [nM] (MOR)). For the same compound, the results for the Ki in data set [10] (read-out: Ki (DOR)), in data set [13] (read-out: Ki (KOR)) and in data set [14] (read-out: Ki (MOR)) were 1170 nM, 90 nM and 12 nM, respectively. The “fold lower affinity for KOR compared to salvinorin A” value in data set [11] was determined as 47 fold. In addition, the “time spent in the open arms compared to vehicle” value in data set [8] is reported as “notable increase in open arm time, but this was not statistically significant”. In data set [12], the “fold higher affinity for MOR compared to salvinorin A” value is on record as ≥ 83 fold.

Source of the values: publication PMC9015904 (ChemMedChem, 2022).
